Test results as given in US4443436A, “C-20-Modified macrolide derivatives of the macrolide antibiotics tylosin, desmycosin, macrocin, and lactenocin” (Eli Lilly and Company, priority 1982, dated 1984).
In brackets after ≈: the same amount, converted by molar mass. Read-outs that look alike come from different tables or passages of the source.

Experiments:
Streptococcus Group 9960 = assay: MIC, standard agar-dilution assay, Streptococcus Group 9960; format: cell-based; settings: Streptococcus Group 9960, agar dilution
[1] = system: Staphylococcus aureus S13E; assay: MIC, standard agar-dilution assay, Staphylococcus aureus S13E; format: cell-based
[2] = system: Streptococcus Group D X66; assay: MIC, standard agar-dilution assay, Streptococcus Group D X66; format: cell-based
[3] = system: Streptococcus pyogenes C203; assay: MIC, standard agar-dilution assay, Streptococcus pyogenes C203; format: cell-based
[4] = system: Staphylococcus aureus X1.1; assay: MIC, standard agar-dilution assay, Staphylococcus aureus X1.1; format: cell-based
[5] = system: Staphylococcus aureus X400; assay: MIC, standard agar-dilution assay, Staphylococcus aureus X400; format: cell-based
[6] = system: Staphylococcus aureus V41; assay: MIC, standard agar-dilution assay, Staphylococcus aureus V41; format: cell-based
[7] = system: Streptococcus pneumoniae Park I; assay: microbe, parasite or virus in culture; format: cell-based
[8] = system: Staphylococcus epidermidis EPI1; assay: MIC, standard agar-dilution assay, Staphylococcus epidermidis EPI1; format: cell-based
[9] = system: Staphylococcus epidermidis EPI2; assay: MIC, standard agar-dilution assay, Staphylococcus epidermidis EPI2; format: cell-based; settings: Staphylococcus epidermidis EPI2, agar dilution
Streptococcus bovis 80 = assay: MIC, broth-dilution microtiter test, Streptococcus bovis 80; format: cell-based; settings: Streptococcus bovis 80, broth-dilution microtiter
Excerpt: (§1) The MIC's in Table X were obtained using conventional broth-dilution microtiter tests.

Staphylococcus aureus = assay: MIC, broth-dilution microtiter test, Staphylococcus aureus; format: cell-based
Excerpt: as §1

Mycoplasma hyorhinis = assay: MIC, broth-dilution microtiter test, Mycoplasma hyorhinis; format: cell-based
Excerpt: as §1

[10] = system: Pasteurella multocida 60A; assay: MIC, broth-dilution microtiter test, Pasteurella multocida 60A; format: cell-based; settings: Pasteurella multocida 60A, avian isolate, broth-dilution microtiter
Excerpt: as §1

[11] = system: Streptococcus pyogenes C203; assay: In vivo protection of mice experimentally infected with S. pyogenes C203; settings: Streptococcus pyogenes, mice, doses given 1 and 4 hours post-infection
Description: The C-20 modified derivatives of this invention have shown in vivo antimicrobial activity against experimentally-induced infections in laboratory animals. When two doses of test compound were administered to mice experimentally infected with S. pyogenes C203, the activity observed was measured as an ED50 value [effective dose in mg/kg to protect 50% of the test animals: see Warren Wick, et al., J. Bacteriol. 81, 233-235 (1961)].

[12] = system: Haemophilus influenzae Holt; assay: MIC, standard agar-dilution assay, Haemophilus influenzae Holt; format: cell-based; settings: Haemophilus influenzae Holt, ampicillin-sensitive strain
Mycoplasma gallisepticum = assay: MIC, broth-dilution microtiter test, Mycoplasma gallisepticum; format: cell-based
Excerpt: as §1

[13] = system: Pasteurella hemolytica 22C; assay: MIC, broth-dilution microtiter test, Pasteurella hemolytica 22C; format: cell-based; settings: Pasteurella hemolytica 22C, broth-dilution microtiter
Excerpt: as §1

[14] = system: Haemophilus influenzae R252; assay: MIC, standard agar-dilution assay, Haemophilus influenzae R252; format: cell-based; settings: Haemophilus influenzae R252, ampicillin-resistant strain
[15] = system: Pasteurella multocida 17E; assay: MIC, broth-dilution microtiter test, Pasteurella multocida 17E; format: cell-based; settings: Pasteurella multocida 17E, bovine isolate, broth-dilution microtiter
Excerpt: as §1

[16] = Streptococcus Group D X66, agar dilution, read-out: MIC
[17] = Staphylococcus epidermidis, EPI1
[18] = Streptococcus equinus, read-out: MIC
[19] = Streptococcus pyogenes C203, agar dilution, read-out: MIC
[20] = C203, sc, subcutaneous, read-out: ED50, Subcutaneous
[21] = C203, oral, read-out: ED50, Oral
[22] = Staphylococcus aureus S13E, agar dilution
[23] = Streptococcus Group D X66, agar dilution
[24] = Streptococcus pyogenes C203, agar dilution
[25] = Staphylococcus aureus X1.1, agar dilution
[26] = Staphylococcus aureus X400, methicillin-resistant strain, agar dilution
[27] = Staphylococcus aureus V41, penicillin-resistant strain, agar dilution
[28] = Staphylococcus epidermidis EPI1, agar dilution

Row | SMILES | MIC (Streptococcus Group 9960; GROUP9960, read-out: MIC) [µg/mL] | MIC ([1]; Staphylococcus aureus, S13E) [µg/mL] | MIC [2, 16] [µg/mL] | MIC ([4]; Staphylococcus aureus, X1.1) [µg/mL] | MIC ([5]; Staphylococcus aureus, X400) [µg/mL] | MIC ([6]; Staphylococcus aureus, V41) [µg/mL] | MIC [8, 17] [µg/mL] | MIC (Streptococcus bovis 80; [18]) [µg/mL] | MIC (Mycoplasma hyorhinis; Mycoplasma) [µg/mL] | MIC [3, 19] [µg/mL] | MIC ([10]; read-out: MIC) [µg/mL] | ED50 [11, 20] [mg/kg] | ED50 [11, 21] [mg/kg] | MIC ([12]; read-out: MIC) [µg/mL] | MIC (Mycoplasma gallisepticum; Mycoplasmoides gallisepticum) [µg/mL] | MIC ([13]; read-out: MIC) [µg/mL] | MIC ([14]; read-out: MIC) [µg/mL] | MIC ([15]; read-out: MIC) [µg/mL] | MIC (Streptococcus Group 9960) | MIC [1, 22] [µg/mL] | further results
1 | CCC1OC(=O)CC(O)C(C)C(OC2OC(C)C(O)C(N(C)C)C2O)C(CCOCCc2ccccc2)CC(C)C(=O)C=CC(C)=CC1COC1OC(C)C(O)C(OC)C1OC (stereo not drawn) [Compound 31, 20-DH-20-O-(Phenethyl)desmycosin] | 16 (≈ 18.2 µM) | 0.25 (≈ 0.285 µM) | 8 (≈ 9.11 µM) | 0.25 (≈ 0.285 µM) | 0.5 (≈ 0.569 µM) | 0.25 (≈ 0.285 µM) | 0.25 (≈ 0.285 µM) | – | – | – | – | – | – | – | – | – | – | – | – | – | MIC ([3]; Streptococcus pyogenes, C203): 1 µg/mL (≈ 1.14 µM); MIC ([7]; Streptococcus pneumoniae): 0.25 µg/mL (≈ 0.285 µM); MIC ([9]; read-out: MIC): 0.12 µg/mL (≈ 0.137 µM)
2 | CCC1OC(=O)CC(O)C(C)C(OC2OC(C)C(OC3CC(C)(O)C(O)C(C)O3)C(N(C)C)C2O)C(CCCl)CC(C)C(=O)C=CC(C)=CC1COC1OC(C)C(O)C(OC)C1OC (stereo not drawn) [Compound 7, 20-DH-DO-20-Chlorotylosin] | > 128 | 1 (≈ 1.07 µM) | – | 1 (≈ 1.07 µM) | 2 (≈ 2.14 µM) | 1 (≈ 1.07 µM) | 1 (≈ 1.07 µM) | 12.5 (≈ 13.3 µM) | 50 (≈ 53.4 µM) | 2 (≈ 2.14 µM) | > 50 | > 6.3 | 11 | > 128 | 0.78 (≈ 0.833 µM) | > 50 | > 128 | > 50 | – | – | MIC [2]: > 128 µg/mL; MIC (Staphylococcus aureus): 3.12 µg/mL (≈ 3.33 µM); MIC ([7]; Streptococcus pneumoniae Park I, agar dilution, read-out: MIC): 32 µg/mL (≈ 34.2 µM)
3 | CCC1OC(=O)CC(O)C(C)C(OC2OC(C)C(OC3CC(C)(O)C(O)C(C)O3)C(N(C)C)C2OC(C)=O)C(CCOc2ccccc2)CC(C)C(=O)C=CC(C)=CC1COC1OC(C)C(O)C(OC)C1OC (stereo not drawn) [Compound 64, 20-DH-20-O-Phenyl-2'-O-acetyltylosin] | – | – | – | – | – | – | – | – | – | – | – | – | – | – | – | – | – | – | -- (Not active at 128 mcg/ml, the highest level tested) | 2 (≈ 1.93 µM) | MIC (Streptococcus bovis 80): 12.5 µg/mL (≈ 12.1 µM); MIC [2, 23]: -- (Not active at 128 mcg/ml, the highest level tested); MIC (Staphylococcus aureus; broth-dilution microtiter): 3.12 µg/mL (≈ 3.01 µM); MIC (Mycoplasma hyorhinis; Mycoplasma hyorhinis, broth-dilution microtiter): 50 µg/mL (≈ 48.3 µM); MIC [3, 24]: 2 µg/mL (≈ 1.93 µM); MIC [4, 25]: 2 µg/mL (≈ 1.93 µM); MIC [10]: -- (Not active at 50 mcg/ml, the highest level tested); MIC [5, 26]: 4 µg/mL (≈ 3.86 µM); MIC ([12]; agar dilution): -- (Not active at 128 mcg/ml, the highest level tested); MIC (Mycoplasma gallisepticum; Mycoplasma gallisepticum, broth-dilution microtiter): 1.56 µg/mL (≈ 1.51 µM); MIC [13]: -- (Not active at 50 mcg/ml, the highest level tested); MIC ([14]; agar dilution): -- (Not active at 128 mcg/ml, the highest level tested); MIC [6, 27]: 2 µg/mL (≈ 1.93 µM); MIC [8, 28]: 2 µg/mL (≈ 1.93 µM); MIC [9]: 2 µg/mL (≈ 1.93 µM); MIC [15]: -- (Not active at 50 mcg/ml, the highest level tested)
4 | CCC1OC(=O)CC(O)C(C)C(OC2OC(C)C(OC3CC(C)(O)C(O)C(C)O3)C(N(C)C)C2O)C(CCOc2ccccc2)CC(C)C(=O)C=CC(C)=CC1COC1OC(C)C(O)C(OC)C1OC (stereo not drawn) [Compound 4, 20-DH-20-O-Phenyltylosin] | 128 (≈ 129 µM) | 1 (≈ 1.01 µM) | 128 (≈ 129 µM) | 1 (≈ 1.01 µM) | – | 1 (≈ 1.01 µM) | 1 (≈ 1.01 µM) | 12.5 (≈ 12.6 µM) | 50 (≈ 50.3 µM) | 2 (≈ 2.01 µM) | > 50 | > 6.3 | 35 | > 128 | 1.56 (≈ 1.57 µM) | > 50 | > 128 | > 50 | – | – | MIC (Staphylococcus aureus; broth-dilution microtiter, read-out: MIC): 3.12 µg/mL (≈ 3.14 µM); MIC ([5]; Staphylococcus aureus X400, methicillin-resistant strain, agar dilution, read-out: MIC): 2 µg/mL (≈ 2.01 µM)
5 | CCC1OC(=O)CC(O)C(C)C(OC2OC(C)C(O)C(N(C)C)C2O)C(CCOc2ccc(CO)cc2)CC(C)C(=O)C=CC(C)=CC1COC1OC(C)C(O)C(OC)C1OC (stereo not drawn) [Compound 51a] | – | – | – | – | – | – | – | – | – | – | – | – | – | – | – | – | – | – | 16 µg/mL (≈ 18.2 µM) | 0.5 (≈ 0.568 µM) | MIC [2, 23]: 16 µg/mL (≈ 18.2 µM); MIC [3, 24]: 0.5 µg/mL (≈ 0.568 µM); MIC [4, 25]: 0.5 µg/mL (≈ 0.568 µM); MIC [5, 26]: 1 µg/mL (≈ 1.14 µM); MIC ([12]; agar dilution): 64 µg/mL (≈ 72.7 µM); MIC ([14]; agar dilution): 32 µg/mL (≈ 36.4 µM); MIC [6, 27]: 0.5 µg/mL (≈ 0.568 µM); MIC [8, 28]: 0.5 µg/mL (≈ 0.568 µM); MIC [9]: 0.25 µg/mL (≈ 0.284 µM)
